According to EP0095454A2, “Nuclens-substituted pyrogallol derivatives” (Gerot-Pharmazeutika Gesellschaft m.b.H., priority 1982, dated 1983):
Where a name gives a salt, the structure may show the parent alone.

Legend:
[1] = system: Maus; assay: Writhing test according to Huntingdon (analgesia); type: in vivo; conditions: Mus musculus, oral
Method: (§1) Sobewirkt z.B. das Hydrochlorid von 2,2-Dimethyl-4- (2' hydroxy-3'-tert.butylaminopropoxy)-1,3-benzodioxol am wachen Hund eine 40-fach intensivere Abschwächung der positiv chronotropen Isoprenalinwirkung als der bekannte B-Blocker Atenolol in gleicher Dosierung und ergibt im Writhing-Test nach Huntingdon mit einer ED 50 von nur 8 mg/kg (Maus, oral) eine gute analgetische Wirkung. Vergleicht man diese im Writhina-Test mit der von bekannten Analgetika, dann zeigt sich die Überlegenheit des neuen Wirkstoffes: […]

[2] = system: ß-Adrenozeptor; assay: Attenuation of the positive chronotropic effect of isoprenaline in the conscious dog; type: in vivo, Hund; conditions: intensity relative to the known ß-blocker Atenolol at the same dose
Method: as §1

## NC(=O)c1ccccc1OCC(=O)O [Natriumsalz der Salicylamid-O-essigsäure]
[1]
  ED50: 11.5 mg/kg

## CC(C)(C)NCC(O)COc1cccc2c1OC(C)(C)O2 (centres unmarked) [2,2-Dimethyl-4-(2'-hydroxy-3'-tert.butylamino--propoxy)-1,3-benzodioxol]
[2]
  Abschwächung der positiv chronotropen Isoprenalinwirkung: 40 -fach
[1]
  ED50: 8 mg/kg

## CCOC(=O)C1(c2ccccc2)CCN(C)CC1 [Pethidin-Hydrochlorid]
[1]
  ED50: 13.3 mg/kg

## Cc1c(N(C)CS(=O)(=O)O)c(=O)n(-c2ccccc2)n1C [Metamizol-Natrium]
[1]
  ED50: 10.6 mg/kg
